Experimental data from patent US10221163B2 (priority 2015, dated 2019).
Where two headings read alike, the source gives them in different places.

What was measured:
[1] = test system: Pseudomonas aeruginosa efflux+ (MB9798), IMP-1; type: cell-based; parameters: Concentration of metallo-β-lactamase inhibitor which restores susceptibility of efflux + (MB9798) strain to imipenem: unit not given here; details: C, D serine β-lactamase inhibitor closely related to relebactam; for Concentration of metallo-β-lactamase inhibitor which restores susceptibility of efflux + (MB9798) strain to imipenem: imipenem at 2 μg/mL, in the presence of a class A; for P. aeruginosa expressing IMP-1, efflux + (MB9798) MITC95: concentration restoring susceptibility to imipenem at 2 μg/mL in the presence of a class A
Summary of the method: (§1)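 Steps: add fixed imipenem and/or ceftazidime (usually CLSI breakpoint) and fixed AmpC-directed class A/C inhibitor to microbroth MIC wells; titrate MBL inhibitor; record concentration regaining susceptibility for each PAO1-derived strain; divide efflux+ by efflux− value.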

[2] = test system: Pseudomonas aeruginosa efflux− (MB9799), IMP-1; type: cell-based; details: C, D serine β-lactamase inhibitor closely related to relebactam; for Concentration of metallo-β-lactamase inhibitor which restores susceptibility of efflux − (MB9799) strain to imipenem: imipenem at 2 μg/mL, in the presence of a class A; for P. aeruginosa expressing IMP-1, efflux − (MB9799) MITC95: concentration restoring susceptibility to imipenem at 2 μg/mL in the presence of a class A
Summary of the method: as §1

VIM-1 = VIM-1 (Pseudomonas aeruginosa (strain ATCC 15692 / DSM 22644 / CIP 104116 / JCM 14847 / LMG 12228 / 1C / PRS 101 / PAO1), UniProt A0A0F7KYQ8); test: biochemical; details: CCF2-FA substrate, 30 pM enzyme, 2 hours at 25° C.
Summary of the method: (§2)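 Fluorescence assay, CCF2-FA substrate (cephalosporin core linking 7-hydroxycoumarin to fluorescein); inhibitor + MBL + substrate, 2 h, 25° C. IC50 by 4-parameter fit, semi-log plot.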

[3] = test system: Pseudomonas aeruginosa MB9798 vs MB9799
Description: The strain background was Pseudomonas aeruginosa PAO1.
The strain set was then used as a pair to determine the effect of metallo-β-lactamase inhibitors of Formula I on the MIC of imipenem and/or ceftazidime. A fixed concentration of antibiotic was included in standard microbroth MIC tests, usually at the CLSI (Clinical and Laboratory Standards Institute) breakpoint concentration. A fixed amount of a class A/C beta-lactamase inhibitor was also included to inhibit the resident Pseudomonas AmpC enzyme. A serial titration of the metallo-β-lactamase inhibitor was included and the concentration of metallo-β-lactamase inhibitor which restores susceptibility of the strain to the included antibiotic was recorded. That concentration of metallo-β-lactamase inhibitor was then compared between the two strains to determine the fold difference between the efflux+ (MB9798) and efflux− (MB9799) strains. This was taken as an indication of the extent to which the MBLi is subject to efflux.

IMP-1 = IMP-1 (Serratia marcescens, UniProt P52699); test: biochemical; type: biochemical; details: fluorescence assay, CCF2-FA substrate, 2 pM enzyme, 2 hours at 25° C.; read-out: IMP-1 IC50
Summary of the method: as §2

NDM-1 = NDM-1 (Klebsiella pneumoniae, UniProt C7C422); test: biochemical; type: biochemical; details: fluorescence assay, CCF2-FA substrate, 1 pM enzyme, 2 hours at 25° C.; read-out: NDM-1 IC50
Summary of the method: as §2

[4] = test system: Klebsiella pneumoniae expressing VIM-1 (IHMA599644); type: cell-based; details: for Klebsiella pneumoniae MITC95: VIM-1 strain IHMA599644, with imipenem 1 μg/ml, 95% inhibition of growth; for Klebsiella pneumoniae expressing VIM-1 (IHMA599644) MITC95: with imipenem 1 μg/ml, 95% inhibition of bacterial growth
Summary of the method: (§3)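 Clinical strains grown overnight on blood agar at 35°C, colonies suspended in saline, diluted 1:100 into 1.1×CAMHB. Test compound titrated with imipenem at 1 μg/ml; incubated 22–24 h at 35°C, growth read by absorbance.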

[5] = test system: Serratia marcescens expressing IMP-1 (CL5741); type: cell-based; details: for Serratia marcescens MITC95: IMP-1 strain CL5741, with imipenem 1 μg/ml, 95% inhibition of growth; for Serratia marcescens expressing IMP-1 (CL5741) MITC95: with imipenem 1 μg/ml, 95% inhibition of bacterial growth
Summary of the method: as §3

[6] = test system: Escherichia coli expressing NDM-1 (CLB30005, CLB30016); type: cell-based; details: with imipenem 1 μg/ml; for Escherichia coli MITC95: NDM-1 strain, 95% inhibition of growth; for Escherichia coli expressing NDM-1 (CLB30016) MITC95: 95% inhibition of bacterial growth
Summary of the method: as §3

[7] = fold difference between efflux+ (MB9798) and efflux− (MB9799) strains, imipenem at 2 μg/mL
[8] = fluorescence assay, read-out: VIM-1 IC50
[9] = ratio MITC95 PA_9798/MITC95 PA_9799

Chain of NDM-1 (C7C422 whole entry, looked up, species assumed): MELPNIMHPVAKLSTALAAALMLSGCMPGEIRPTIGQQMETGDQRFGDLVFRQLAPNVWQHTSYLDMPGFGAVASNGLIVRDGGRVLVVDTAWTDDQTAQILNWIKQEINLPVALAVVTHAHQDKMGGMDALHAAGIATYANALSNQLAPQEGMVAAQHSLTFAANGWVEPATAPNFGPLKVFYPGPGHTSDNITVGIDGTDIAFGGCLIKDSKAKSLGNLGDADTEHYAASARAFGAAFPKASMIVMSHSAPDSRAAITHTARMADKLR
Chain of IMP-1 (P52699 whole entry, looked up, species assumed): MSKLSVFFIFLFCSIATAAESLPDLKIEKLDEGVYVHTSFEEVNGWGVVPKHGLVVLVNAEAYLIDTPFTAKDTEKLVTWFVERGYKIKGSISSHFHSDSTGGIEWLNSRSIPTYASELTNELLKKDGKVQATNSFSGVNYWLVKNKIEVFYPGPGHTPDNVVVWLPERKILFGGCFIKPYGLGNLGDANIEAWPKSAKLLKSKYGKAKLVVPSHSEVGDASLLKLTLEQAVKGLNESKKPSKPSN

Row | Compound | Concentration of metallo-β-lactamase inhibitor which restores susceptibility of efflux + (MB9798) strain to imipenem [1] | Concentration of metallo-β-lactamase inhibitor which restores susceptibility of efflux − (MB9799) strain to imipenem [2] | IC50 (VIM-1; VIM-1 IC50, fluorescence assay) | Efflux ratio [3, 7] | IC50 (IMP-1) | IC50 (NDM-1) | Klebsiella pneumoniae MITC95 [4] | Serratia marcescens MITC95 [5] | Escherichia coli MITC95 [6] | P. aeruginosa expressing IMP-1, efflux + (MB9798) MITC95 [1] | P. aeruginosa expressing IMP-1, efflux − (MB9799) MITC95 [2] | IC50 (VIM-1; [8]) | Efflux ratio [3, 9] | Klebsiella pneumoniae expressing VIM-1 (IHMA599644) MITC95 [4] | Serratia marcescens expressing IMP-1 (CL5741) MITC95 [5] | Escherichia coli expressing NDM-1 (CLB30016) MITC95 [6]
1 | NC[C@H](CO)NS(=O)(=O)c1ccc(-c2cccc3[nH]nnc23)c(-c2nn[nH]n2)c1S(N)(=O)=O [Example 407] | 3.125 | 1.563 | 0.335 nM | 2.00 | 1.35 nM | 0.14 nM | 3.125 µM | 1.563 µM | 0.7813 µM | – | – | – | – | – | – | –
2 | NS(=O)(=O)c1c(S(=O)(=O)N[C@@H]2CCNC2)ccc(-c2cccc3ncccc23)c1-c1nn[nH]n1 [Example 287, (R)-N1-(pyrrolidin-3-yl)-4-(quinolin-5-yl)-3-(2H-tetrazol-5-yl)benzene-1,2-disulfonamide] | – | – | – | – | 0.617 nM | 0.0422 nM | 3.125 µM | 1.563 µM | 1.563 µM | 1.563 µM | 1.563 µM | 0.165 nM | 1.00 | – | – | –
3 | Nc1ccc(-c2ccc(S(=O)(=O)NC[C@@H](N)CO)c(S(N)(=O)=O)c2-c2nn[nH]n2)cn1 [Example 365, (R)—N1-(2-amino-3-hydroxypropyl)-4-(6-aminopyridin-3-yl)-3-(2H-tetrazol-5-yl) benzene-1,2-disulfonamide] | – | – | – | – | 0.59 nM | 0.259 nM | 3.125 µM | 0.3906 µM | 0.1953 µM | 1.563 µM | 0.7813 µM | 0.246 nM | 2.00 | – | – | –
4 | NCCNS(=O)(=O)c1ccc(-c2cccnc2N)c(-c2nn[nH]n2)c1S(N)(=O)=O [Example 358, N1-(2-aminoethyl)-4-(2-aminopyridin-3-yl)-3-(2H-tetrazol-5-yl)benzene-1,2-disulfonamide] | – | – | – | – | 4.05 nM | 0.319 nM | 1.563 µM | 0.3906 µM | 0.2441 µM | 1.563 µM | 0.7813 µM | 0.205 nM | 2.00 | – | – | –
5 | NCCNS(=O)(=O)c1ccc(-c2cccc3oc(N)nc23)c(-c2nn[nH]n2)c1S(N)(=O)=O [Example 11, 4-(2-aminobenzo[d]oxazol-4-yl)-N^1-(2-aminoethyl)-3-(2H-tetrazol-5-yl)benzene-1,2-disulfonamide] | – | – | – | – | – | – | – | – | – | 0.3906 µM | 0.3906 µM | 0.0502 nM | 1.00 | 1.563 µM | 0.7813 µM | 0.7813 µM
6 | C[C@H](CN)NS(=O)(=O)c1ccc(-c2cccnc2N)c(-c2nn[nH]n2)c1S(N)(=O)=O [Example 212, (R)-N1-(1-amino-propan-2-yl)-4-(2-aminopyridin-3-yl)-3-(2H-tetrazol-5-yl)benzene-1,2-disulfonamide] | – | – | – | – | – | – | – | – | – | 1.563 µM | 1.563 µM | 0.154 nM | 1.00 | 1.563 µM | 0.7813 µM | 0.3906 µM
7 | CNc1nc2c(-c3ccc(S(=O)(=O)NCCN)c(S(N)(=O)=O)c3-c3nn[nH]n3)cccc2[nH]1 [Example 467, N1-(2-aminoethyl)-4-(2-(methylamino)-1H-benzo[d]imidazol-4-yl)-3-(2H-tetrazol-5-yl)benzene-1,2-disulfonamide] | 0.3906 | 0.7813 | – | 0.50 | – | – | 1.563 µM | 0.7813 µM | 0.7813 µM | – | – | 0.12 nM | – | – | – | –
8 | NCc1sc(N)nc1-c1cccc(-c2ccc(S(=O)(=O)N[C@@H]3CCNC3)c(S(N)(=O)=O)c2-c2nnn[nH]2)c1 [Example 432] | 0.7813 | 0.7813 | 0.387 nM | 1.00 | – | – | 1.563 µM | 0.7813 µM | 0.7813 µM | – | – | – | – | – | – | –
9 | Nc1nc2c(-c3ccc(S(=O)(=O)N[C@@H](N)c4ccccn4)c(S(N)(=O)=O)c3-c3nnn[nH]3)cccc2s1.O=C(O)C(F)(F)F [Example 99, (R)-(4-(2-aminobenzo[d]thiazol-4-yl)-2-sulfamoyl-3-(1H-tetrazol-5-yl)phenylsulfonamido)(pyridin-2-yl)methanaminium 2,2,2-trifluoroacetate] | – | – | – | – | – | – | – | – | – | 25 µM | 3.125 µM | 0.499 nM | 8.00 | 25 µM | 6.25 µM | 12.5 µM
10 | NCCNC(=O)c1cc(Cl)cc(-c2ccc(S(=O)(=O)N[C@@H]3CCNC3)c(S(N)(=O)=O)c2-c2nn[nH]n2)c1N [Example 450] | 1.563 | 0.7813 | – | 2.00 | – | – | 1.563 µM | 1.563 µM | 1.563 µM | – | – | 0.276 nM | – | – | – | –
